{
  "source": "paper PMC5885780",
  "about": "“Sub-nanosecond tryptophan radical deprotonation mediated by a protein-bound water cluster in class II DNA photolyases” (Chemical Science, 2017)",
  "assay_in_all_cases": "UV/vis and transient absorption of co-purified protein-bound FAD",
  "assay_type_in_all_cases": "binding",
  "conditions_in_all_cases": "pH 8.0, 10 mM Tris-HCl, 100 mM NaCl, 10% glycerol, 7 °C; oxidized FAD; free FAD removed by size-exclusion column",
  "key": {"[1]": {"molecular_target": "T1, MmCPDII (class II CPD photolyase) (Methanosarcina mazei, UniProt Q8PYK9, W388F)", "T1 construct": "gene MM_0852; full-length from pET-28a-MmCPDII, E. coli BL21-Gold(DE3), NiNTA and SEC"}, "[2]": {"molecular_target": "T2, MmCPDII (class II CPD photolyase) (Methanosarcina mazei, UniProt Q8PYK9, Y345F)", "T2 construct": "gene MM_0852; full-length from pET-28a-MmCPDII, E. coli BL21-Gold(DE3), NiNTA and SEC"}, "[3]": {"molecular_target": "T3, MmCPDII (class II CPD photolyase) (Methanosarcina mazei, UniProt Q8PYK9)", "T3 construct": "gene MM_0852; full-length from pET-28a-MmCPDII, E. coli BL21-Gold(DE3), NiNTA and SEC"}, "[4]": {"molecular_target": "T4, MmCPDII (class II CPD photolyase) (Methanosarcina mazei, UniProt Q8PYK9, E387Q)", "T4 construct": "gene MM_0852; full-length from pET-28a-MmCPDII, E. coli BL21-Gold(DE3), NiNTA and SEC"}},
  "data": [
    {"smiles": "Cc1cc2nc3c(=O)[nH]c(=O)nc-3n(C[C@H](O)[C@H](O)[C@H](O)COP(=O)(O)OP(=O)(O)OC[C@H]3O[C@@H](n4cnc5c(N)ncnc54)[C@H](O)[C@@H]3O)c2cc1C", "note": "[FAD]", "values": [
      {"measurement": "UV/vis and transient absorption of co-purified protein-bound FAD", "setting": "[1]", "value": "Isolated MmCPDII photolyase (WT, as well as all mutants studied here) contains a fully oxidized FAD"},
      {"measurement": "UV/vis and transient absorption of co-purified protein-bound FAD", "setting": "[2]", "value": "Isolated MmCPDII photolyase (WT, as well as all mutants studied here) contains a fully oxidized FAD"},
      {"measurement": "UV/vis and transient absorption of co-purified protein-bound FAD", "setting": "[3]", "value": "Isolated MmCPDII photolyase (WT, as well as all mutants studied here) contains a fully oxidized FAD"},
      {"measurement": "UV/vis and transient absorption of co-purified protein-bound FAD", "setting": "[4]", "value": "Isolated MmCPDII photolyase (WT, as well as all mutants studied here) contains a fully oxidized FAD"}
    ]}
  ]
}
